The test system of data set [1] is pancreatic cancer cell line AsPC-1. As to the kind of experiment: in vitro. How it is done:
(§1) Pancreatic cancer cell line AsPC-1 cells (5×10^3 cells/well in 96-well plates) were cultured in 1% serum medium with various concentrations of MSLN-pep peptide that specifically binds to mesothelin, NSSSVDK control peptide (Ctrl-pep), R7-KLA peptide that induces apoptosis, Abraxane, gemcitabine, and PBS at 37° C. for 24 and 48 hours. Afterwards, CCK-8 Kit (Dojindo, Kumamoto, Japan) reagent was treated, and a reaction was carried out at 37° C. for 2 hours to evaluate cytotoxicity.
(§2) To determine whether there is cytotoxicity when MSLN-pep binds specifically to mesothelin, the peptide was treated to the pancreatic cancer cell line AsPC-1 at concentrations of 0, 25, 50, 100, and 200 μM, and cell viability was checked for 24 and 48hours.

The nature of a further data set: in vitro. How it is done:
as §1, §2

Data set [2] deals with PANC-1 and AsPC-1 cell lines. In words: analysis of migration (24-transwell). The format is cell-based, human. Conditions: 200 μM + 10% FBS; 24 hours. How it is done: PANC-1 and AsPC-1 cell lines were cultured using DMEM and RPMI-1640 media with 10% FBS added respectively in the upper chamber of 24-transwell at a concentration of 2×10^4 cells per well. After 24 hours, all the media in the upper chamber of 24-transwells were removed and replaced with DMEM and RPMI-1640 media without addition of 10% FBS to inhibit migratability of cell lines, so as to be in a starvation state. After 24 hours, the experimental group was added with 10% FBS in the lower chamber, and the control was added with 0% FBS in the lower chamber to observe migratability. 3% ACN, 200 μM control peptide (Ctrl-pep), MSLN-pep 25. For 50, 100, and 200 μM groups, the media in the upper chamber of 24-Transwell were removed, each drug was treated by concentration, and 10% FBS was treated in the lower chamber. Each group was cultured at 37° C. for 24 hours, and then the cells were photographed (original magnification, ×100) by concentration of each peptide. Cells were stained with crystal violet (0.1%), and the ImageJ, a computer program, was used for quantitative evaluation.
(§3) After pancreatic cancer cell lines PANC-1 and AsPC-1 were cultured in 24-transwells, all cells were starved for 24 hours to inhibit cell growth, and then treatment was performed in divided groups of 10% FBS, 0% FBS, 3% ACN+10% FBS, 200 μM NSSSVDK+10% FBS, 25 μM MSLN-pep+10% FBS, 50 μM MSLN-pep+10% FBS, 100 μM MSLN-pep+10% FBS, and 200 μM MSLN-pep+10% FBS.

Another data set has as its system AsPC-1 tumor. In words: tumor homing of peptides in mice. In kind it is in vivo, nude mice. Conditions: TAMRA-labeled, intravenous, 6 hours circulation; liver, lungs, kidneys. The procedure: Pancreatic cancer cell line AsPC-1 cells (1×10^7 cells) were implanted under the skin of nude mice, left until the tumor size reaches about 100 mm^3, and then intravenously injected with 100 μl of 1 mM peptides labeled with a TAMRA fluorescence reagent, followed by circulation for 6 hours. Tumors and organs (liver, lung, and kidney) were separated and treated with paraformaldehyde for fixation and preparation of cryosections. The prepared cryosections were observed under a fluorescence microscope.
Pancreatic cancer cell line AsPC-1 cells (1×10^7 cells) were implanted under
the skin of nude mice, left until the tumor size reached about 100 mm^3, and then intravenously injected with MSLN-pep labeled with the TAMRA fluorescence reagent and control peptide (Ctrl-pep), followed by circulation for 6 hours. The tumor and control organs were separated, and cryosections were prepared, followed by observation under a fluorescence microscope.

Data set [3] deals with PANC-1 and AsPC-1 cell lines. As to the kind of experiment: analysis of invasion (Matrigel-coated 24-transwell). The format is cell-based, human. Conditions: 200 μM + 10% FBS; 24 hours. How it is done:
PANC-1 and AsPC-1 cell lines were cultured using DMEM and RPMI-1640 media with 10% FBS added in 100 mm dish each at a concentration of 2×10^6 cells per well. After 24 hours, all media in 100 mm dishes were removed and replaced with DMEM and RPMI-1640 media without addition of 10% FBS to inhibit migratability of cell lines so as to be in a starvation state. After 24 hours, 300 μg/mL of Matrigel was coated on the upper chamber of 24-Transwell. Afterwards, PANC-1 and AsPC-1 cell lines were cultured in the upper chamber at a concentration of 2×10^4 cells in a 100 mm dish, 10% FBS was added to the lower chamber for the experimental group, and 0% FBS was added to the lower chamber for the control group to identify migratability. 3% ACN, 200 μM control peptide (Ctrl-pep), MSLN-pep 25. For 50, 100, and 200 μM groups, each cell line was cultured together in the upper chamber of the 24-Transwell, and 10% FBS was treated in the lower chamber. Each group was cultured at 37° C. for 24 hours, and then the cells were photographed (original magnification, ×100) for each concentration of peptides. Cells were stained with crystal violet (0.1%), and Image J, a computer program, was used for quantitative evaluation.
as §3

Data set [4] concerns pancreatic cancer cell lines PANC-1 and AsPC-1. In words: internalization of FITC-labeled peptides (confocal microscopy). The format is cell-based, human. The conditions noted are these: 25 μM and 50 μM MSLN-pep, 50 uM NSSSVDK; 1 and 2 hours. How it is done:
To observe the intracellular distribution of the internalized FITC-labeled peptide MSLN-pep, pancreatic cancer cell lines AsPC-1 and PANC-1 cells (2.5×10^5 cell counts) were dispensed on a 4-well chamber slide. After complete adhesion, the cell culture medium was replaced with a fresh medium containing FITC-labeled peptides (25 μM, 50 μM), […], and the cells were washed with PBS 3 times for 3˜5 minutes, followed by fixation (4% paraformaldehyde; PFA) for 5 minutes. Thereafter, washing with PBS was performed. After staining the nucleus with DAPI and mounting on a glass slide with a fading reagent, internalization of FITC-labeled MSLN-pep was observed under confocal microscopy.

The target of the next data set is mesothelin (Homo sapiens, UniProt Q13421). In words: immunofluorescence binding to HEK-293T cells transiently transfected with mesothelin-GFP plasmid. The format is cell-based. Set-up: GFP; host or cells: HEK293T. Conditions: 10 μM and 25 μM MSLN-pep, 25 μM Ctrl-pep; transfected and untransfected HEK-293T. The procedure:
HEK293T cells were transiently transfected using Lipofectamine 3000 (Invitrogen) in 6-well plates according to the manufacturer's protocol. Prior to transfection, 2×10^5 cells were cultured in 6-well plates for 24 hours. To transfect one well, 7.5 μl of Lipofectamine 3000 reagent was diluted in 250 μl of Opti-MEM (Invitrogen) reagent, followed by a reaction at room temperature for 5 minutes. 5 μg of mesothelin-expressing plasmid pCMV6-AC-GFP vector DNA was diluted in 250 μl of Opti-MEM (Invitrogen) reagent, followed by a reaction at room temperature for 5 minutes. The mixture of two solutions were then mixed and reacted at room temperature for 10 minutes (a total of 500 μl per well). The old medium of the cells was immediately removed, and a 500 μl of DNA-transfection reagent-mixture was added to the cells before transfer to the incubator. After 24 hours of culture, the medium was again replaced with a pre-warmed growth medium containing serum. Culture was performed for 48 hours, and the newly inserted protein was expressed in the cells.
Taken together, it was found via immunofluorescence analysis that MSLN-pep specifically binds to mesothelin.

The target of data set [5] is T1, human mesothelin (endogenous, on pancreatic cancer cell lines AsPC-1, PANC-1, BxPC-3, MiaPaCa-2) (human, UniProt Q13421 296-598).
T1 construct: whole, on cells; also called MSLN
In words: confocal microscopy on PANC-1 and AsPC-1 cells, 1 and 2 hours.

In data set [6] the target is T1, human mesothelin (endogenous, on …). As to the kind of experiment: cell-based or functional assay.

Converted amounts (≈) assume the structure as drawn. Positions of bridges follow the written chain, without caps; N, C: chain ends. Residues, ends and D or L forms follow the SMILES beside them. No end group written: not given here.

T1 sequence (Q13421 other isoform, or with tags, fused parts or gaps limits assumed): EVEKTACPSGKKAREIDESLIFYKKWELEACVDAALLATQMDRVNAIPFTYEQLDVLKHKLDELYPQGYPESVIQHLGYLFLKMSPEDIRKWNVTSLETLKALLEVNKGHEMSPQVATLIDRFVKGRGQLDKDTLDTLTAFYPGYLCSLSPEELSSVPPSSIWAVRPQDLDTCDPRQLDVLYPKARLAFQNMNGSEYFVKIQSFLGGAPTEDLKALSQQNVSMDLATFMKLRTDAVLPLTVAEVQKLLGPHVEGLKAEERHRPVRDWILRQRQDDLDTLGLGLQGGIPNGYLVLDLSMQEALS
Chain of mesothelin (Q13421 with tags, fused parts or gaps): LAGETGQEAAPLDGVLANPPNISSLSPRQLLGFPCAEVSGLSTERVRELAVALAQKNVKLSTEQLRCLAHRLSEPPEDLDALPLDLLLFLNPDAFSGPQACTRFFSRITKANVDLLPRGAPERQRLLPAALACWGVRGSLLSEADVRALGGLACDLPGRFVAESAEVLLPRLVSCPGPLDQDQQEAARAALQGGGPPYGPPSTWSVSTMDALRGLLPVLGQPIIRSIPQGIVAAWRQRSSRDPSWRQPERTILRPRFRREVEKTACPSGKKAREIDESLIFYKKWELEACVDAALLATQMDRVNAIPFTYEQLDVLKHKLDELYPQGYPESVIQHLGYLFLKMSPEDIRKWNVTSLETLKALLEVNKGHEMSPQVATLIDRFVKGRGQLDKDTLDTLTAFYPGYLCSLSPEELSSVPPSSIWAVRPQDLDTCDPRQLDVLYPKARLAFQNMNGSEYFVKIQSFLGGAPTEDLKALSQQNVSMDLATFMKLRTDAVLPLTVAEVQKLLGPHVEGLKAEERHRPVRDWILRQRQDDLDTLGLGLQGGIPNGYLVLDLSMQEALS

As for `CC[C@H](C)[C@@H]1NC(=O)[C@H]([C@@H](C)O)NC(=O)[C@@H](N)CSSC[C@@H](C(=O)N[C@@H](CCCCN)C(=O)N[C@@H](CC(C)C)C(=O)N[C@@H](C)C(=O)N[C@@H](CCCCN)C(=O)N[C@@H](CC(C)C)C(=O)N[C@@H](C)C(=O)N[C@@H](CCCCN)C(=O)N[C@@H](CCCCN)C(=O)N[C@@H](CC(C)C)C(=O)N[C@@H](C)C(=O)N[C@@H](CCCCN)C(=O)N[C@@H](CC(C)C)C(=O)N[C@@H](C)C(=O)N[C@@H](CCCCN)C(=O)O)NC(=O)[C@H]([C@@H](C)O)NC(=O)[C@H](CC(C)C)NC(=O)[C@H](CO)NC(=O)[C@H](Cc2c[nH]c3ccccc23)NC(=O)[C@H](CC(C)C)NC1=O` [MSLN-pep-KLA] (H-CTILWSLTCKLAKLAKKLAKLAK-OH; disulfide 1-9), the “cell viability, comparison between groups” value in data set [1] (0, 6.25, 12.5, 25, 50, 100, and 200 uM, 24 hours) was “second lowest”. In “in vitro”, this molecule came in with a concentration for half-maximal inhibition (IC50) of 33 µM.

Take `Nc1ccn([C@@H]2O[C@H](CO)[C@@H](O)C2(F)F)c(=O)n1` [gemcitabine, reference compound]: in data set [1] (Homo sapiens, ASPC1, 24 h, read-out: IC50 value (cytotoxicity)), the IC50 was determined as 3.3 µg/mL (≈ 12.5 µM). Further, the viability at 10 µg/mL in data set [1] (Homo sapiens, ASPC1, 24 h, read-out: cell viability) was at most 40%.

Turning to NSSSVDK [Ctrl-pep, reference compound], the “migratability compared to treatment of 10% FBS” value in data set [2] was “no difference in the migratability and invasiveness”. Also, the “targeting to control organs (fluorescence microscopy of cryosections)” value in the data set with AsPC-1 tumor is on record as “barely observed”. In addition, the “invasiveness compared to treatment of 10% FBS” value in data set [3] was “no difference in the migratability and invasiveness”. Moreover, the “binding and internalization into cells” value in data set [4] was “did not bind to PANC-1 and AsPC-1”. Moreover, in the data set with mesothelin, the “specific binding (immunofluorescence)” value was “did not have specific binding”.

As for NSSSVDK (Control peptide) [NSSSVDK control peptide (Ctrl-pep)], in [5], the binding result was “no binding (tested: 50 µM)”.

Turning to CTILWSLTCKLAKLAKKLAKLAK (disulfide 1-9) [MSLN-pep-KLA (fusion of CTILWSLTC and apoptotic peptide KLAKLAKKLAKLAK)], the “cell viability of AsPC-1 after 24 hours (CCK-8), IC50” value in data set [6] came to 33 µM.

In general, IC50 refers to the concentration at which inhibition is half-maximal. Usually viability stands for a read-out of living cells in per cent, often relative to untreated cells.

Values taken from patent publication US20250154201A1, “PEPTIDE BINDING TO MESOTHELIN, AND USE THEREOF” (KYUNGPOOK NATIONAL UNIVERSITY INDUSTRY-ACADEMIC COOPERATION …, priority 2022, published 2025).
